# Values of other authors, collected in patent publication US8759282B2, “Water-soluble films comprising low-viscosity alginates” (Uppsalagruppen Medical AB, priority 2005, dated 2014).
# Like-named read-outs stand apart in the source and are kept apart here.
# Assays:
# [1] = not given; remark: listed apart in the source
Solubility in water (listed as ibuprofen),SMILES,Solubility in water,pKa [1]
,"CC(=O)Oc1ccccc1C(=O)O [Substance 2, 2-Acetoxibensoesyra]",1 g/100 g of water,
,"CC(=O)Nc1ccc(O)cc1 [Substance 1, N-Acetyl-p-aminophenol]",only slightly soluble in water,
,"CN1CCC[C@H]1c1cccnc1 [Substance 4, (S)-3-(1-Methyl-2-pyrrolidinyl)pyridine]",liquid miscible with water,8.5
only slightly soluble in water,"CC(C)Cc1ccc(C(C)C(=O)O)cc1 (stereo not drawn) [Substance 3, p-Isobutylhydratropic acid]",slightly soluble in water,
